Assay results from patent US9694401B2, “Method and apparatus for treating perfluoroalkyl compounds” (ThinkVillage-Kerfoot, LLC, priority 2013, dated 2017).
Counter-ions that a name gives are not always drawn. Like-named read-outs stand apart in the source and are kept apart here.

How the values were obtained:
[1] = cited from earlier work
[2] = Bench scale groundwater treatment with peroxide-coated ozone nanobubbles (1260 ppmV O3, 10% H2O2); assay type: physicochemical; conditions: for PFC concentration in groundwater, 1 HR: 1260 ppmV O3, 10% H2O2, 1 HR; for PFC concentration in groundwater, 2 HR: 1260 ppmV O3, 10% H2O2, 2 HR; for % REMOVAL from groundwater: 1260 ppmV O3, 10% H2O2, start to last time point; for PFC concentration in groundwater, START: untreated start (0 minutes)
Method: (§1) On one foam fire-fighting site, samples of groundwater from monitoring well 1 (MW1) and soil samples between MW1 and monitoring well 3 (MW3) were shipped to the laboratory in coolers with blue ice packing to maintain the temperature at less than 4.4° C. (40° F.). Two sets of tests were conducted, groundwater and soil treatment.
Bench scale tests were conducted in a pressurized glass cylindrical reaction cell (17-20 psi) holding a laminar stainless steel spargepoint with a 0.20-micron porous surface. Four liters of groundwater were mixed together. A liter of distilled water as a blank was treated and set aside for analysis. The first liter of groundwater was also set aside as “start” condition (0 minutes). One liter of groundwater from MW1 was added to the cell. An ozone flow of 5 cm^3/sec was added at 1260 ppmV. Peroxide (10%) flow was 8 cm^3/minute and treated for 30 minutes. Pressure was 17-20 psi.
A second liter was added to the chamber and treated for 60 minutes. The blank, original (start), 30 minute, and 60 minute samples were placed in ice for analysis. A final sample (120 minute) was treated with 60 minutes of peroxide, but ozone continued for 120 minutes.

[3] = Bench scale soil treatment with peroxide-coated ozone nanobubbles (2400 ppmV O3), soil fraction; assay type: physicochemical; conditions: for decomposing the other PF compounds (removal) by the new solution: matrix not given; for removal in the soil series: 2400 ppmV O3, 41.1° C. to 43.3° C.
Method: as §1
(§2) For soil samples, 1000 cm^3 of soil was mixed together and then separated into four 250 cm^3 aliquots. The first was submitted as background (start) condition. The remaining three were treated with a fine bubble-coated ozone bubble solution from the pressurized generator (20-25 psi). The ozone concentration was 2400 ppmV with a flow of 5 cm^3/sec. The peroxide was 10% solution and supplied at 5 cm^3/min flow. The generator was filled with 500 liters of groundwater from the site well (MW1) which was delivered in 50 cm^3 surges to a two-liter flask with the soil under constant stirring action. The subsequent reaction raised the temperature of the soil/liquid solution from 20.6° C. (69° F.) to 22.8° C. (73° F.) after 10 minutes, reaching 41.1° C. (106° F.) after 30 minutes. For the 30-minute treatment, no further bubble solution was added; the flask was placed over water until bubbling ceased or two hours and then placed in chilled water. The overlying groundwater was decanted off, and the underlying semi-solid was placed in a glass jar and chilled for transport for analysis. A similar procedure was followed for the 60- and 120-minute soil aliquots.

[4] = Bench scale soil treatment (2400 ppmV O3), groundwater over soil slurry; assay type: physicochemical; conditions: for PFC concentration in groundwater over soil slurry, 30 MIN / PFC concentration in groundwater over soil slurry, 60 MIN / PFC concentration in groundwater over soil slurry, 120 MIN / % REMOVAL in groundwater over soil slurry: 2400 ppmV O3, 10% peroxide; for % REMOVAL in groundwater over soil slurry: start to 120 MIN
Method: as §1, §2

[5] = Bench scale groundwater treatment with peroxide-coated ozone nanobubbles (1260 ppmV O3, 10% H2O2); assay type: physicochemical; conditions: 1260 ppmV O3, 10% H2O2, 3 HR
[6] = cited from earlier work; for Water Solubility: at 25° C.
[7] = cited from earlier work; remark: listed apart in the source
[8] = cited from earlier work; remark: listed apart in the source
[9] = 155 mg/L PFOA, 12 g/L persulfate, 80° C., cited from earlier work
[10] = cited from earlier work; remark: listed apart in the source

Row | Structure (SMILES) | Acidity (pKa) [1] | PFC concentration in groundwater, 1 HR [2] | PFC concentration in groundwater, 2 HR [2] | % REMOVAL from groundwater [2] [%] | PFC concentration in groundwater, START [2] | decomposing the other PF compounds (removal) by the new solution [3] [%] | PFC concentration in groundwater over soil slurry, 30 MIN [4] | PFC concentration in groundwater over soil slurry, 60 MIN [4] | PFC concentration in groundwater over soil slurry, 120 MIN [4] | % REMOVAL in groundwater over soil slurry [4] [%] | PFC concentration in groundwater over soil slurry, START [4] | PFC concentration in groundwater, 3 HR [5] | further results
1 | OO [H2O2, hydrogen peroxide] | 11.7 | – | – | – | – | – | – | – | – | – | – | – | –
2 | O=C(O)C(F)(F)C(F)(F)C(F)(F)C(F)(F)C(F)(F)F [PFHxA, perfluorohexanoic acid] | – | 110 | 150 | 69.2 | 270 | 86.2 | 75 | 34 | 23 | 91.5 | 270 | 86 | –
3 | O=S(=O)(O)C(F)(F)C(F)(F)C(F)(F)C(F)(F)C(F)(F)C(F)(F)F [PFHxS, perfluorohexane sulfonate] | – | 100 | 110 | 86 | 300 | 98.1 | 87 | 14 | 8 | 97.4 | 300 | 42 | –
4 | O=C(O)C(F)(F)C(F)(F)C(F)(F)C(F)(F)C(F)(F)C(F)(F)C(F)(F)F [PFOA, perfluorooctanoic acid] | 0 | 17 | 13 | 73.6 | 34 | – | 22 | 4 | 3 | 91.2 | 34 | 9 | removal in the soil series [3]: over 97%; Solubility in water ([6]; Table 2): Soluble, 9.5 g/L; Water Solubility ([6]; purified): 9.5 × 10^3 (purified) mg/L; Vapor Pressure at 20° C. [7]: 0.017 mm Hg; Solubility in other solvents [8]: Polar organic solvents; Fluoride ions formed (molar ratio) ([9]; 6 hours): 77.5%; carbon dioxide formed (molar ratio) ([9]; 6 hours): 70.2%; aqueous phase PFOA concentration after treatment ([9]; after 6 hours, 0.6 mg/L = detection limit): less than 0.6 mg/L; PFOA degraded ([10]; 1 M H2O2 and 0.5 mM iron (III), within 150 minutes): 94%; PFOA degradation ([10]; reactions generating O2^− or HO2^− alone): degraded rapidly
5 | O=S(=O)(O)C(F)(F)C(F)(F)C(F)(F)C(F)(F)C(F)(F)C(F)(F)C(F)(F)C(F)(F)F [PFOS (Potassium Salt)] | – | – | – | – | – | – | – | – | – | – | – | – | Water Solubility ([6]; filtered seawater): (freshwater), 25 (filtered mg/L; Water Solubility ([6]; freshwater): 370 mg/L; Vapor Pressure at 20° C. [7]: 2.48 × 10^−6 mm Hg
6 | O=S(=O)(O)C(F)(F)C(F)(F)C(F)(F)C(F)(F)C(F)(F)C(F)(F)C(F)(F)C(F)(F)F [PFOS, perfluorooctane sulfonate] | <<0 | 150 | 160 | 82.3 | 430 | – | 340 | 33 | 44 | 89.8 | 430 | 76 | removal in the soil series [3]: over 99%
7 | O=C(O)C(F)(F)C(F)(F)C(F)(F)C(F)(F)F [PFPeA, perfluoropentanoic acid] | – | 27 | 23 | 82.1 | 84 | 89.8 | 13 | 8 | 6 | 92.9 | 84 | 15 | –
